Numbers after ± are expanded uncertainties.
Experiment: xn = mol fraction of the nth substance listed
Conditions: 100 kPa, Liquid; for viscosity: Concentric cylinders viscometry; for mass density: Vibrating tube method

CCOC(=O)CCC(=O)OCC [diethyl butanedioate] + CC(C)CCO
Conditions	mass density [kg/m3]	viscosity [mPa·s]
288.15 K, x1 = 0.1	845.17 ± 1.6	3.582 ± 0.034
288.15 K, x1 = 0.2	875.25 ± 1.6	3.029 ± 0.029
288.15 K, x1 = 0.3	902.72 ± 1.6	2.76 ± 0.026
288.15 K, x1 = 0.3999	927.82 ± 1.6	2.625 ± 0.025
288.15 K, x1 = 0.5	951.1 ± 1.6	2.58 ± 0.025
288.15 K, x1 = 0.5999	972.64 ± 1.6	2.6 ± 0.025
288.15 K, x1 = 0.7	992.67 ± 1.6	2.667 ± 0.025
288.15 K, x1 = 0.7999	1011.24 ± 1.6	2.808 ± 0.027
288.15 K, x1 = 0.9002	1028.55 ± 1.6	2.943 ± 0.028
288.15 K, x1 = 1	1044.83 ± 1.6	3.195 ± 0.03
293.15 K, x1 = 0.1	841.19 ± 1.6	3.097 ± 0.029
293.15 K, x1 = 0.2	871.04 ± 1.6	2.621 ± 0.025
293.15 K, x1 = 0.3	898.32 ± 1.6	2.396 ± 0.023
293.15 K, x1 = 0.3999	923.26 ± 1.6	2.283 ± 0.022
293.15 K, x1 = 0.5	946.4 ± 1.6	2.25 ± 0.022
293.15 K, x1 = 0.5999	967.82 ± 1.6	2.271 ± 0.022
293.15 K, x1 = 0.7	987.73 ± 1.6	2.332 ± 0.023
293.15 K, x1 = 0.7999	1006.2 ± 1.6	2.455 ± 0.024
293.15 K, x1 = 0.9002	1023.43 ± 1.6	2.573 ± 0.025
293.15 K, x1 = 1	1039.63 ± 1.6	2.807 ± 0.027
298.15 K, x1 = 0.1	837.19 ± 1.6	2.712 ± 0.026
298.15 K, x1 = 0.2	866.82 ± 1.6	2.321 ± 0.022
298.15 K, x1 = 0.3	893.91 ± 1.6	2.139 ± 0.021
298.15 K, x1 = 0.3999	918.7 ± 1.6	2.053 ± 0.02
298.15 K, x1 = 0.5	941.69 ± 1.6	2.025 ± 0.02
298.15 K, x1 = 0.5999	962.98 ± 1.6	2.048 ± 0.02
298.15 K, x1 = 0.7	982.79 ± 1.6	2.103 ± 0.02
298.15 K, x1 = 0.7999	1001.17 ± 1.6	2.207 ± 0.021
298.15 K, x1 = 0.9002	1018.32 ± 1.6	2.308 ± 0.022
298.15 K, x1 = 1	1034.44 ± 1.6	2.491 ± 0.024
303.15 K, x1 = 0.1	833.18 ± 1.6	2.377 ± 0.023
303.15 K, x1 = 0.2	862.59 ± 1.6	2.056 ± 0.02
303.15 K, x1 = 0.3	889.5 ± 1.6	1.905 ± 0.019
303.15 K, x1 = 0.3999	914.12 ± 1.6	1.834 ± 0.018
303.15 K, x1 = 0.5	936.98 ± 1.6	1.817 ± 0.018
303.15 K, x1 = 0.5999	958.15 ± 1.6	1.838 ± 0.018
303.15 K, x1 = 0.7	977.86 ± 1.6	1.889 ± 0.018
303.15 K, x1 = 0.7999	996.14 ± 1.6	1.981 ± 0.019
303.15 K, x1 = 0.9002	1013.2 ± 1.6	2.069 ± 0.02
303.15 K, x1 = 1	1029.25 ± 1.6	2.229 ± 0.022
308.15 K, x1 = 0.1	829.15 ± 1.6	2.096 ± 0.02
308.15 K, x1 = 0.2	858.35 ± 1.6	1.831 ± 0.018
308.15 K, x1 = 0.3	885.07 ± 1.6	1.707 ± 0.017
308.15 K, x1 = 0.3999	909.54 ± 1.6	1.65 ± 0.016
308.15 K, x1 = 0.5	932.26 ± 1.6	1.638 ± 0.016
308.15 K, x1 = 0.5999	953.31 ± 1.6	1.661 ± 0.017
308.15 K, x1 = 0.7	972.91 ± 1.6	1.707 ± 0.017
308.15 K, x1 = 0.7999	991.1 ± 1.6	1.789 ± 0.018
308.15 K, x1 = 0.9002	1008.09 ± 1.6	1.868 ± 0.018
308.15 K, x1 = 1	1024.08 ± 1.6	2.008 ± 0.02
313.15 K, x1 = 0.1	825.09 ± 1.6	1.867 ± 0.018
313.15 K, x1 = 0.2	854.08 ± 1.6	1.649 ± 0.016
313.15 K, x1 = 0.3	880.62 ± 1.6	1.547 ± 0.015
313.15 K, x1 = 0.3999	904.94 ± 1.6	1.502 ± 0.015
313.15 K, x1 = 0.5	927.52 ± 1.6	1.496 ± 0.015
313.15 K, x1 = 0.5999	948.47 ± 1.6	1.518 ± 0.015
313.15 K, x1 = 0.7	967.97 ± 1.6	1.562 ± 0.016
313.15 K, x1 = 0.7999	986.08 ± 1.6	1.635 ± 0.016
313.15 K, x1 = 0.9002	1002.99 ± 1.6	1.706 ± 0.017
313.15 K, x1 = 1	1018.9 ± 1.6	1.821 ± 0.018
318.15 K, x1 = 0.1	821.01 ± 1.6	1.656 ± 0.017
318.15 K, x1 = 0.2	849.79 ± 1.6	1.475 ± 0.015
318.15 K, x1 = 0.3	876.16 ± 1.6	1.391 ± 0.014
318.15 K, x1 = 0.3999	900.33 ± 1.6	1.356 ± 0.014
318.15 K, x1 = 0.5	922.78 ± 1.6	1.354 ± 0.014
318.15 K, x1 = 0.5999	943.61 ± 1.6	1.377 ± 0.014
318.15 K, x1 = 0.7	963.02 ± 1.6	1.419 ± 0.014
318.15 K, x1 = 0.7999	981.04 ± 1.6	1.485 ± 0.015
318.15 K, x1 = 0.9002	997.88 ± 1.6	1.549 ± 0.015
318.15 K, x1 = 1	1013.72 ± 1.6	1.66 ± 0.017
323.15 K, x1 = 0.1	816.9 ± 1.6	1.496 ± 0.015
323.15 K, x1 = 0.2	845.48 ± 1.6	1.346 ± 0.014
323.15 K, x1 = 0.3	871.68 ± 1.6	1.271 ± 0.013
323.15 K, x1 = 0.3999	895.7 ± 1.6	1.247 ± 0.013
323.15 K, x1 = 0.5	918.03 ± 1.6	1.243 ± 0.013
323.15 K, x1 = 0.5999	938.75 ± 1.6	1.27 ± 0.013
323.15 K, x1 = 0.7	958.06 ± 1.6	1.308 ± 0.013
323.15 K, x1 = 0.7999	975.99 ± 1.6	1.369 ± 0.014
323.15 K, x1 = 0.9002	992.76 ± 1.6	1.428 ± 0.014
323.15 K, x1 = 1	1008.55 ± 1.6	1.523 ± 0.015

From the NIST ThermoML archive (doi:10.1016/j.jct.2016.09.030)
